Experimental data as given in US20060024392A1, “Compositions and methods for enhancing the effectiveness of a chemotherapeutic agent” (priority 2004, published 2006).
Entries after “also recorded” stand apart in the source; their conditions may differ.

Tested on: HT29 colon cancer cells
Experiment: Sulforhodamine B (SRB) cell growth assay in HT29 colon cancer cells
Format: cell-based
Protocol: HT-29, a cell line derived from colorectal adenocarcinoma (ATCC, HTB 38), grows in McCoy's 5A medium (Biowhittaker, Inc. Walkersville, Md.). NCM460, a cell line derived from a normal human colon (InCell Corp. San Antonio, Tex.), grows in M3 Base media (InCell Corp. San Antonio, Tex.).
Both cell lines are kept at 37° C. and 5% CO2 atmosphere. Both media are supplemented with 10% fetal bovine serum (FBS, Biowhittaker, Inc. Walkersville, Md.).
Cells are fixed in situ by the gentle addition of 50 μl of cold 50% (w/v) TCA (final concentration, 10% TCA) and incubated for 60 minutes at 4° C. The supernatant is discarded, and the plates are washed five times with tap water and air dried. Sulforhodamine B (SRB) solution (100 μl) at 0.4% (w/v) in 1% acetic acid is added to each well, and plates are incubated for 10 minutes at room temperature. After staining, unbound dye is removed by washing five times with 1% acetic acid and the plates are air dried. Bound stain is subsequently solubilized with 100 μl 10 mM trizma base for 5 minutes, and the absorbance at wavelength of 490 nm was spectrophotometrically measured using a microplate reader Elx800 (Bio-Tek instruments, Inc.).
Cells were seeded in 96-well cluster tissue culture plates (Costar), containing 100 μl complete growth medium per well at densities of 5,000 cells per well. Incubated at 37° C. in a humidified tissue culture incubator. After 24 Hour, 100 μl complete medium containing 5 half-log dilutions of the 5FU from 2*10^−4 to 2*10^−6 M was added into each well (final concentrations are from 10^−4 to 10^−6 M). Six replicates were used for each concentration. Media containing 0.125% DMSO was used as control. After 48 hours of incubation with 5FU in medium, cell proliferation was assessed using the SRB assay.
Percentage growth (Growth%) is calculated as: [(Ti−Tz)/(C−Tz)]×100 [absorbance measurements at time zero (Tz), control growth (C), and test growth in the presence of drug at the different concentration levels (Ti)].
Similar to the method used in testing GI50 of 5FU: HT29 was plated at 5000 cells per well. […] After 48 hour treatment, cell growth was assessed using SRB assay.
The protocol was the same as described above, except cells were exposed to 5FU at concentration ranging from 10^−4 to 10^−6 M with chokeberry ARE at concentration of 1.56, 5, 15.6, 50 μg monomeric anthocyanin/ml growth media.
The protocol was the similar to Experiment 1: Cells were exposed to half-log diluted SAC at concentration ranging from 3.2 to 1000 μM for 48 hour. Media containing 0.5% filtered water was used as control.
This experiment was to determine whether the antioxidant, SAC would enhance the effect of 5FU in HT29 cells. The protocol was the same as Experiment 3, except cells were exposed to 5FU at concentration ranging from 10^−4 to 10^−6 M with SAC at concentration of 10, 100, 1000 μM.

[1] = SAC 3.2 μM, 48 hour, experiment 1
[2] = SAC 3.2 μM, 48 hour, experiment 2
[3] = SAC 10 μM, 48 hour, experiment 1
[4] = SAC 10 μM, 48 hour, experiment 2
[5] = SAC 32 μM, 48 hour, experiment 1
[6] = SAC 32 μM, 48 hour, experiment 2
[7] = SAC 100 μM, 48 hour, experiment 1
[8] = SAC 100 μM, 48 hour, experiment 2
[9] = SAC 320 μM, 48 hour, experiment 1
[10] = SAC 320 μM, 48 hour, experiment 2
[11] = SAC 1000 μM, 48 hour, experiment 1
[12] = SAC 1000 μM, 48 hour, experiment 2
[13] = Table 6 (1): SAC 1000 uM, 5FU 0
[14] = Table 6 (2): SAC 1000 uM, 5FU 0

## C=CCSC[C@H](N)C(=O)O [SAC, S-Allyl-cysteine]
5FU 10^−4 to 10^−6 M with SAC 10, 100, 1000 μM
  enhancement of 5FU toxicity by SAC: No significant enhancement; also recorded: did not inhibit HT29 cell growth or enhance 5 FU toxicity
[1]
  Growth %: 101.17%
  OD: 0.66
[2]
  Growth %: 102.24%
  OD: 0.682
[3]
  Growth %: 98.37%
  OD: 0.648
[4]
  Growth %: 94.17%
  OD: 0.646
[5]
  Growth %: 92.77%
  OD: 0.624
[6]
  Growth %: 98.43%
  OD: 0.665
[7]
  Growth %: 92.77%
  OD: 0.624
[8]
  Growth %: 98.21%
  OD: 0.664
[9]
  Growth %: 81.59%
  OD: 0.576
[10]
  Growth %: 101.35%
  OD: 0.678
[11]
  Growth %: 86.95%
  OD: 0.599
[12]
  Growth %: 98.65%
  OD: 0.666
SAC 3.2 to 1000 μM, 48 hour
  inhibition of HT29 cancer cells by SAC: did not show significant inhibition; also recorded: did not inhibit HT29 cell growth
Table 6 (1): SAC 10 uM, 5FU 0
  Growth %: 104.65%
  OD: 0.341
Table 6 (1): SAC 100 uM, 5FU 0
  Growth %: 104.19%
  OD: 0.34
[13]
  Growth %: 95.35%
  OD: 0.321
Table 6 (2): SAC 10 uM, 5FU 0
  Growth %: 92.41%
  OD: 0.335
Table 6 (2): SAC 100 uM, 5FU 0
  Growth %: 91.56%
  OD: 0.333
[14]
  Growth %: 74.26%
  OD: 0.292
